Laboratory results as given in patent publication US9580400B2, “Cannabinergic nitrate esters and related analogs” (Northeastern University, priority 2013, dated 2017).

Assays:
human GPR55 receptor = biological target: T1, human GPR55 receptor (Homo sapiens, UniProt Q9Y2T6); assay: β-arrestin2 translocation assay, GPR55, U2OS cells; type: cell-based
T1 construct: human GPR55 receptor modified with human vasopressin V2 receptor tail [GPR55(E)]; fused on or other part: C-terminal tail of the human vasopressin V2 receptor (AVPR2), added to strengthen beta-arrestin recruitment; HA tag; Beta-arrestin 2-GFP is co-expressed as the read-out
Method: Test compounds were screened in U2OS cells permanently expressing β-arrestin 2-GFP and human GPR55 receptor modified with human vasopressin V2 receptor tail [GPR55(E)].
β-arrestin2 translocation: For both agonist and antagonist assays, the U2OS cells permanently transfected with β-arrestin 2-GFP and human GPR55(E) were used to trace β-arrestin translocation upon compound treatment. U2OS cells permanently expressing HA-GPR55E and βarr2-GFP were plated into 96 or 384 glass bottomed well plates in clear MEM. For the antagonist assay, compounds in DMSO (final concentration <1%) were added to cells 15 min prior to LPI (agonist) addition and the plates were placed in a 5% 37 degree CO2 incubator (LPI was used at 6 μM). For agonist evaluation only the compound of interest is placed on the wells. Following 40 minute incubation, the cells are fixed by adding paraformaldehyde to 4%. Image acquisition is performed using the Cellomics Arrayscan VTI High Content (HC) cell based imaging system and a ×40 lens. Image analysis is done by using the Batchmode computer software evaluating wavelet information which reflects the number and intensity of fluorescent aggregation (procedures performed at Duke University and adopted from http://www.ncbi.nlm.nih.gov/books/NBK66153/and J. Biol. Chem. 2009; 284(43):29817-27 herein incorporated by reference in its entirety). FIG. 15 describes the biochemical assay for compound 78 wherein the β-arrestin assessment of GPR55 activation is shown.

rCB1 = biological target: T2, rCB1 (Rattus norvegicus, UniProt P20272); assay: rCB1 competition-equilibrium binding using [3H]CP-55,940, rat brain membranes; conditions: Ki calculated from IC50, read-out: rCB1 affinity data
T2 construct: tissue Pel-Freeze Biologicals; host or cells: rat brain membranes
Method: Frozen rat brains (CB1 source) are obtained from Pel-Freeze Biologicals (Rogers, A K) and stored at −80° C. until use. Membranes are prepared according to the method described in Brain Res 1981, 226, (1-2), 107-18 and adapted as previously reported in J Med Chem 1994, 37, (23), 3867-70 and Life Sci 1995, 56, (23-24), 1957-62; each herein incorporated by reference in its entirety.
(§1) The compounds are tested for their ability to bind to CB1 and CB2 receptors using rat brain or HEK293 cell membranes expressing hCB2 and mCB2 membrane preparations, respectively, as described in J Med Chem 1999, 42, (4), 769-776, J Med Chem 1994, 37, (23), 3867-70 and Life Sci 1995, 56, (23-24), 1957-62 (each herein incorporated by reference in its entirety) via competition-equilibrium binding using [^3H]CP-55,940. The results are analyzed using nonlinear regression to determine the actual IC50 of the ligand (Prizm by GraphPad Software, Inc.) and the Ki values are calculated from the IC50 as described in Biochemical Pharmacology 1973, 22, (23), 3099-3108; herein incorporated by reference in its entirety.

hCB2 = biological target: T3, hCB2 (Homo sapiens, UniProt P34972); assay: hCB2 competition-equilibrium binding using [3H]CP-55,940, HEK293 cell membranes; conditions: HEK293 cell membranes expressing hCB2; Ki calculated from IC50; read-out: hCB2 affinity data
T3 construct: expressed in transfected cells; host or cells: HEK293
Method: HEK293 cells expressing hCB1, hCB2 or mCB2 receptor are used for membrane preparations according to the method described in J Neurochem 1999, 72, (5), 2032-8, herein incorporated by reference in its entirety. The resulting pellet is resuspended in 10 mM Tris-chloride, pH 7.4 with 5 mM MgCl2 and 2 mM EDTA (TME), and stored at −80° C. for no longer than two months. Protein content is assayed by using the Bio-Rad DC protein assay according to the manufacturer's protocol.
as §1

[1] = antagonist assay, compound added 15 min prior to LPI (6 μM), U2OS cells with β-arrestin 2-GFP and GPR55(E)

T1 sequence (Q9Y2T6 1-292 limits assumed): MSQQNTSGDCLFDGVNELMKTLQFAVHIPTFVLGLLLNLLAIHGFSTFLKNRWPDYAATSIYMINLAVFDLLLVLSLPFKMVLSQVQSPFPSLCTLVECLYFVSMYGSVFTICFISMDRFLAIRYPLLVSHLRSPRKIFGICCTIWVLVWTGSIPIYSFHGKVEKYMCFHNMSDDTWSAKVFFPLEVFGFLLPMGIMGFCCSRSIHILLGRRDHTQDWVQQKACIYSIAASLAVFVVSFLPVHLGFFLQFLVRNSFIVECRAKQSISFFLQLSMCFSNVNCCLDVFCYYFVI
T2 sequence (P20272 whole entry): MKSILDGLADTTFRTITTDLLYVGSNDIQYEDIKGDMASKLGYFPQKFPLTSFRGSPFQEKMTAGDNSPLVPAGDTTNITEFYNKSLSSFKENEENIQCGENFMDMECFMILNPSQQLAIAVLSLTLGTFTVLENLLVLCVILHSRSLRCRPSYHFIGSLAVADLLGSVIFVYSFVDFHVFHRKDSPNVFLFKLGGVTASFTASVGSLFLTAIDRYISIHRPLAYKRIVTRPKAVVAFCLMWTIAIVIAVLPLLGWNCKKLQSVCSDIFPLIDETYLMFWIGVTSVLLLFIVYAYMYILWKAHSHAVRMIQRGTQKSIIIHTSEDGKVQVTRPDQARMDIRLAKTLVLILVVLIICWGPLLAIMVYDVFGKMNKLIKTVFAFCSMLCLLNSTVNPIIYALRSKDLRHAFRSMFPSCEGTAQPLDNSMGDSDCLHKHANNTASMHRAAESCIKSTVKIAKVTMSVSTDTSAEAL
T3 sequence (P34972 whole entry): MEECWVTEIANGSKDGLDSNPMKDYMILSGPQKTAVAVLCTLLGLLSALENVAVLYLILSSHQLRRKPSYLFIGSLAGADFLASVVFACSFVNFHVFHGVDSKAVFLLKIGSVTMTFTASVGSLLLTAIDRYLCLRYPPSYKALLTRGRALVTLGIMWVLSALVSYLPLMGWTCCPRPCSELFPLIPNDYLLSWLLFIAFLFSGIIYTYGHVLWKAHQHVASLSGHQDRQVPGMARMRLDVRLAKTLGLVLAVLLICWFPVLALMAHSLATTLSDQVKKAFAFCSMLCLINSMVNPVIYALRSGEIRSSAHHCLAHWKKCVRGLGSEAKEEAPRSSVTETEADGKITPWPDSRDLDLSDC

Compound | GPR55 EC50 (human GPR55 receptor; [1]) | Ki (rCB1) [nM] | Ki (hCB2) [nM] | also measured
C=C(C)[C@@H]1CCC(C)=C[C@H]1c1c(O)cc(CCCCC)cc1O [cannabidiol] | none |  |  | 
CC1=CC[C@@H]2[C@@H](C1)c1c(O)cc(C(C)(C)CCCCO[N+](=O)[O-])cc1OC2(C)C [compound 1, 5-((6aR,1aR)-1-hydroxy-6,6,9-trimethyl-6a,7,10,10a-tetrahydro-6H-benzo[c]chromen-3-yl)-5-methylhexyl nitrate] |  | 0.1 | 1 | 
L-α-lysophosphatidylinositol [LPI] |  |  |  | EC50 (human GPR55 receptor; LPI (agonist) line of the antagonist assay table): 6000 nM
C=C(C)[C@@H]1CCC(C)=C[C@H]1c1c(O)cc(O)cc1CCCCC [abn-cannabidiol, abnormal cannabidiol] | none |  |  | 
CCCCCc1cc(O)c2c(c1)OC(C)(C)[C@@H]1CCC(C)=C[C@@H]21 [Δ^9-THC, Δ^9-tetrahydrocannabinol] | none |  |  | 
C=C(C)[C@@H]1CCC(C)=C[C@H]1c1c(O)cc(C(C)(C)CCCCO[N+](=O)[O-])cc1O [compound 78, 5-((1′R,2′R)-2,6-dihydroxy-5′-methyl-2′-(prop-1-en-2-yl)-1′,2′,3′,4′-tetrahydro-[1,1′-biphenyl]-4-yl)-5-methylhexyl nitrate] |  | 60 | 35 | EC50 (human GPR55 receptor; [1]): 2000 to 4000 nM
